Patent US20260184697A1, “EZH1/2 INHIBITOR, PREPARATION THEREOF, AND USE THEREOF IN ANTI-TUMOR THERAPY” (JIANGSU TASLY DIYI PHARMACEUTICAL CO., LTD., priority 2022, published 2026)
Where two headings read alike, the source gives them in different places.

How the values were obtained:
[1] = tested on: H3K27Me3 methylation in Karpas-422 cells; experiment: H3K27Me3 cell method, inhibition of H3K27Me3 methylation (Test Example 2); format: cell-based, human
Procedure: Karpas-422 (Nanjing Kebai, CBP60629) cells were seeded in a 96-well plate (Corning, 3894) at 15,000 cells per well in culture medium (80% 1640 (Hyclone, SH30809.01)+20% FBS (Corning, 35-081-CV)), and then added with different concentrations of compounds for treatment. The cell growth group without adding compounds is used as a positive control (maximum signal control), and the medium is used as a negative control (minimum signal control), while ensuring that in each reaction well, the final concentration of DMSO was 0.2%. Compounds and cells were incubated for 3 days in a cell culture incubator (37° C., 5% CO2). The 96-well plate was taken out from the cell culture incubator and equilibrated to room temperature, and 25 ul of cell suspension was taken out into a 384-well plate. The CCK8 (Beiyuntian, C0040) detection reagent was added, incubated at 37° C. for 1 h, and […] was detected. The rest of the cells followed the procedure of the kit EPIgeneous H3K27Me3 cellular kit (Cisbio, 62KC3PAE) to carry out experiment, read HTRF signal with BMG PHERAStar. […] By GraphPad Prism 6 with log(inhibitor)vs.response-Variable slope model simulation, the IC50 of the compound on cell activity inhibition was calculated. The fitting equation is: Y=Bottom+(Top−Bottom)/(1+10^((Log IC50−X)*HillSlope)), wherein Y represents the inhibition rate, and X represents the known concentration of the compound after Log.

EZH2/SUZ/EED = molecular target: T1, EZH2/SUZ/EED (Homo sapiens, UniProt O75530+Q15022+Q15910); experiment: Inhibitory effect on EZH2 by the MTase-Glo method (Test Example 1); format: biochemical; conditions: EZH2/SUZ/EED 6.25 nM, H3 peptide 10 μM, SAM 3 μM, 30° C. 3 h, read-out: Test Example 1 WT EZH2 IC50
T1 construct: purchased BPS 51003
T1 sequence (Q15910 2-746 limits assumed): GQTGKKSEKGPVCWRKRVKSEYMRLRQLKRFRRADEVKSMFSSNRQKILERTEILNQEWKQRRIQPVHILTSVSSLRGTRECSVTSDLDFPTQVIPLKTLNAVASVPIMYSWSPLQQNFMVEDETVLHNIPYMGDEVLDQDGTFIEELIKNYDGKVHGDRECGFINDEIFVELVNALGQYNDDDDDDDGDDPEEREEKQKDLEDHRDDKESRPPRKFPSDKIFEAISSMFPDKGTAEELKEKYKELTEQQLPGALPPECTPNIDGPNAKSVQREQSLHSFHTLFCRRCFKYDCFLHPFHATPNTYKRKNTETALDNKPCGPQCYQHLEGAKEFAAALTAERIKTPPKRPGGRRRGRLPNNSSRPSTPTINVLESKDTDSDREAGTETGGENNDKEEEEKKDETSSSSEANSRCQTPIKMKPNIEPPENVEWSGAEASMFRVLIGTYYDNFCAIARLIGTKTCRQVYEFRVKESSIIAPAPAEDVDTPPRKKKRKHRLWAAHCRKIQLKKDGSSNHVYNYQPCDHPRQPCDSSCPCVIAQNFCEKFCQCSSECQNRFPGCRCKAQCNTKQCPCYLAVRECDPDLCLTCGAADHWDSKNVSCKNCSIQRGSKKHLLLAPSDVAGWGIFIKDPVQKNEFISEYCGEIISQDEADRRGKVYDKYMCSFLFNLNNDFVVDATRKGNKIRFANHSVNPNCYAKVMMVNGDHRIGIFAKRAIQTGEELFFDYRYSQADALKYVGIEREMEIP
T1 sequence (Q15022 2-739 partner limits assumed): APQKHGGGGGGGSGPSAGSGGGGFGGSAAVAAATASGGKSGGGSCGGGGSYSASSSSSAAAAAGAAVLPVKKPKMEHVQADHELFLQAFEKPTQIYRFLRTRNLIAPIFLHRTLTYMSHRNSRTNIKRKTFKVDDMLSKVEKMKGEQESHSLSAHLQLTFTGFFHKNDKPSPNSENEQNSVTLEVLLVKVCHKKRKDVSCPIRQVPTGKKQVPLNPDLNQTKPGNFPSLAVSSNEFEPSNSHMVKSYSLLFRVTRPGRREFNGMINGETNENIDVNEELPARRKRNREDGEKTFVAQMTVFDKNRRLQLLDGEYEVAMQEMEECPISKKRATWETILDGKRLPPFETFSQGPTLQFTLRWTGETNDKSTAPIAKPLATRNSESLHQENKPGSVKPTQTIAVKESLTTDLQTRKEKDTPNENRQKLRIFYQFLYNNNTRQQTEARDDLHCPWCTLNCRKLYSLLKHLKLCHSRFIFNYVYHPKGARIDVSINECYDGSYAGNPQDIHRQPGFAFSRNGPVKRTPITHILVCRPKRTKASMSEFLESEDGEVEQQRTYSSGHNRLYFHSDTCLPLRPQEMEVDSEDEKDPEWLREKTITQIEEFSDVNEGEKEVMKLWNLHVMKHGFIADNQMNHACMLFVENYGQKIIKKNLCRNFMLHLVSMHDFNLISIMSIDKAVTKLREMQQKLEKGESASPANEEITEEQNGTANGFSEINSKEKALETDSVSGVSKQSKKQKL
T1 sequence (O75530 2-441 partner limits assumed): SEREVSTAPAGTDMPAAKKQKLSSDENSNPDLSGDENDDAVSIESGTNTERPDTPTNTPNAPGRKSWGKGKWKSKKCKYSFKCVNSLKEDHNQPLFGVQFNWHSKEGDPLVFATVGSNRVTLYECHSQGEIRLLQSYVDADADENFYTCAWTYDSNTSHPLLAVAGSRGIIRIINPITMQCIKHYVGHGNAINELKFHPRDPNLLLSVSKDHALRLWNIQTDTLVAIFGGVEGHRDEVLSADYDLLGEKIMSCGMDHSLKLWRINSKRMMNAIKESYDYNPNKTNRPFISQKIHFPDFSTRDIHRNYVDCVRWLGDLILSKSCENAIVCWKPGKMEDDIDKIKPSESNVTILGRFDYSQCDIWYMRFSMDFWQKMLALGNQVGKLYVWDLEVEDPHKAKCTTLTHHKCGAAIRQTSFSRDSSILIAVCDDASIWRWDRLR
Procedure: (§1) The compound was dissolved in DMSO, and the compound was serially diluted using ECHO665 and transferred to a 384-well reaction plate (Corning, 3824). A sample containing only DMSO was added as a positive control (maximum signal control) and a negative control (minimum signal control), while ensuring that the final DMSO content in each reaction well was 0.5%. The protein was configured in reaction buffer (50 mM Bicine, 0.01% Triton X-100, 1 mM DTT, 0.01% BSA, pH 7.6), such that the final reaction concentrations of EZH2/SUZ/EED (BPS, 51003) protein solution and EZH1/SUZ/EED (BPS, 51006) were 6.25 nM and 25 nM, respectively. The negative control (minimum signal control) used an equal amount of buffer instead of protein solution. The prepared protein solution was added to the 384-well reaction plate and pre-incubated at room temperature for 15 minutes. The mixture of the substrate H3 peptide fragment (custom-synthesized by GenScript, biotinylated Histone H3(21-44) peptide ([…]-GG-K(Biotin)-OH)) prepared in the reaction buffer and SAM (Promega, V7601) was added into the 384-well plate, such that the final reaction concentration of H3 peptide fragment was 10 μM, and the final concentration of SAM was 3 μM. The mixture was centrifuged at 1000 rpm for 1 min. The 384-well reaction plate was placed in a constant temperature shaker and incubate at 30° C. for 3 h at a speed of 300 rpm. Then the detection reagent was added according to the experimental process of the kit MTase-Glo (Promega, V7601) and incubated.
(§2) After incubation, read with BMG PHERAStar. The luminescence signals obtained by positive control (maximum signal control) and negative control (minimum signal control) were normalized to obtain the inhibition rate of different concentrations of compounds. Then, the IC50 of the compound on the enzyme activity inhibition was calculated by GraphPad Prism 6 with log(inhibitor) vs. response-Variable slope model fitting. The fitting equation is: Y=Bottom+(Top−Bottom)/(1+10^((Log IC50−X)*HillSlope)), wherein Y represents the known percentage remaining enzyme activity, and X represents the known activity after Log compound concentration.

EZH1/SUZ/EED = molecular target: T2, EZH1/SUZ/EED (Homo sapiens, UniProt O75530+Q15022+Q92800); experiment: Inhibitory effect on EZH1 by the MTase-Glo method (Test Example 1); format: biochemical; conditions: EZH1/SUZ/EED 25 nM, H3 peptide 10 μM, SAM 3 μM, 30° C. 3 h, read-out: Test Example 1 WT EZH1 IC50
T2 construct: purchased BPS 51006
T2 sequence (Q92800 2-747 limits assumed): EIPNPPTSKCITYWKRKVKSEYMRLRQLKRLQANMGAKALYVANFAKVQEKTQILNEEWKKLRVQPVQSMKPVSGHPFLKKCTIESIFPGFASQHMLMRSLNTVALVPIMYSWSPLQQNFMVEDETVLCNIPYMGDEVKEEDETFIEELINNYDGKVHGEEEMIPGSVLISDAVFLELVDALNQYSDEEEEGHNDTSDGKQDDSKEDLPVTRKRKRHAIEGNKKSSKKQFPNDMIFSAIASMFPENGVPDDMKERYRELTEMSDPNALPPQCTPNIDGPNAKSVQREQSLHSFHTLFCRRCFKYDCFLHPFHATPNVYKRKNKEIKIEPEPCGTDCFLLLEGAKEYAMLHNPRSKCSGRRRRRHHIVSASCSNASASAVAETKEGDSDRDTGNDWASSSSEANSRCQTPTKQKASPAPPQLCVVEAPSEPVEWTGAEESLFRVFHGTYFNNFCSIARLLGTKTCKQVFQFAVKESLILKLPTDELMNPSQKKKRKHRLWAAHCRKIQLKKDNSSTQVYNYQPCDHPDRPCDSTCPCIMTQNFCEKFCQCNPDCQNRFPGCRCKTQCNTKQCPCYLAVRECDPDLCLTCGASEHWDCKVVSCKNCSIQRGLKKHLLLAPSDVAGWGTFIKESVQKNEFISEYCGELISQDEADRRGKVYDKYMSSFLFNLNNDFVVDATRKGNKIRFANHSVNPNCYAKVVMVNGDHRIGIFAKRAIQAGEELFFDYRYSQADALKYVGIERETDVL
T2 sequence (Q15022 2-739 partner limits assumed): as the sequence (Q15022 2-739 partner limits assumed) above
T2 sequence (O75530 2-441 partner limits assumed): as the sequence (O75530 2-441 partner limits assumed) above
Procedure: as §1, §2

[2] = Homo sapiens, KARPAS-422, 72 h, Karpas-422 cells, 3 days incubation, HTRF signal, read-out: Test Example 2 H3K27Me3 inhibition (Karpas-422) IC50
[3] = Karpas-422 cells, 3 days incubation, HTRF signal, read-out: Test Example 2 H3K27Me3 inhibition (Karpas-422) IC50
[4] = Homo sapiens, KARPAS-422, 72 h, read-out: Test Example 2 H3K27Me3 inhibition (Karpas-422) IC50(nM)

Compound	IC50 [1, 2] [nM]	IC50 (EZH2/SUZ/EED) [nM]	IC50 (EZH1/SUZ/EED) [nM]	IC50 [1, 3] [nM]	IC50 [1, 4] [nM]
CSc1cc(C)[nH]c(=O)c1CNC(=O)c1cc(Cl)c2c(c1C)O[C@@H]([C@H]1CC[C@@H](NC3(CF)COC3)CC1)CO2 [Compound 36]	11	2.4	9.7		
CSc1cc(C)[nH]c(=O)c1CNC(=O)c1cc(Cl)c2c(c1C)O[C@@H]([C@H]1CC[C@H](N3CC4(COC4)C3)CC1)CO2 [Compound 29]	34.2	3.3	5.8		
CO[C@@H]1CCN([C@H]2CC[C@H]([C@H]3COc4c(Cl)cc(C(=O)NCc5c(SC)cc(C)[nH]c5=O)c(C)c4O3)CC2)C1 [Compound 42]	47.1		8.6		
CSc1cc(C)[nH]c(=O)c1CNC(=O)c1cc(Cl)c2c(c1C)O[C@@H]([C@H]1CC[C@H](NC3(CF)COC3)CC1)CO2 [Compound 37]	7	3.1	5.9		
CSc1cc(C)[nH]c(=O)c1CNC(=O)c1cc(Cl)c2c(c1C)O[C@@H]([C@H]1CC[C@@H](N3CC4(COC4)C3)CC1)CO2 [Compound 28]	8.2	3.7	9.4		
CCS(=O)(=O)N1CCC([C@H]2COc3c(Cl)cc(C(=O)NCc4c(SC)cc(C)[nH]c4=O)c(C)c3O2)CC1 [Compound 38]	11.5	2.3	4.7		
COCCN(C)[C@H]1CC[C@@H]([C@H]2COc3c(Cl)cc(C(=O)NCc4c(SC)cc(C)[nH]c4=O)c(C)c3O2)CC1 [Compound 26]	3.4	2	5.4		
CSc1cc(C)[nH]c(=O)c1CNC(=O)c1cc(Cl)c2c(c1C)O[C@@H]([C@H]1CC[C@H](N3CC4(CCO4)C3)CC1)CO2 [Compound 46]	65.8		7.7		
Cc1cc(C)c(CNC(=O)c2cc(Cl)c3c(c2C)OC(C2CCC(N4CC(OC5CC5)C4)CC2)CO3)c(=O)[nH]1 (single isomer, unassigned) [Compound 76]		7.6	270	7.6	
Cc1cc(C)c(CNC(=O)c2cc(Cl)c3c(c2C)O[C@@H]([C@H]2CC[C@H](N4CC5COCC5C4)CC2)CO3)c(=O)[nH]1 (stereo partly shown) [Compound 75]	245	48.1	199		
CSc1cc(C)[nH]c(=O)c1CNC(=O)c1cc(Cl)c2c(c1C)O[C@@H]([C@H]1CC[C@H](N3CCC3)CC1)CO2 [Compound 33]		3.6	9.4		7.7
CSc1cc(C)[nH]c(=O)c1CNC(=O)c1cc(Cl)c2c(c1C)O[C@@H](C1CCN(CC3CCC3)CC1)CO2 [Compound 25]	17.3	1.6	8.3		
COC1C2CN([C@H]3CC[C@@H]([C@H]4COc5c(Cl)cc(C(=O)NCc6c(SC)cc(C)[nH]c6=O)c(C)c5O4)CC3)CC21 (stereo partly shown) [Compound 43]	4.1	3.6	4.1		
COC1CC2CN([C@H]3CC[C@@H]([C@H]4COc5c(Cl)cc(C(=O)NCc6c(SC)cc(C)[nH]c6=O)c(C)c5O4)CC3)CC2C1 (stereo partly shown) [Compound 49]	2.8		2.2		
COCCOC1CN([C@H]2CC[C@@H]([C@H]3COc4c(Cl)cc(C(=O)NCc5c(C)cc(C)[nH]c5=O)c(C)c4O3)CC2)C1 [Compound 91]	11.7	3.8	27.3		
COC1CN(C2CCC(C3COc4c(Cl)cc(C(=O)NCc5c(C)cc(C)[nH]c5=O)c(C)c4O3)CC2)C1 (single isomer, unassigned) [Compound 62]		22.1	1440	504	
Cc1cc(C)c(CNC(=O)c2cc(Cl)c3c(c2Cl)OC[C@@H]([C@H]2CC[C@@H](N(C)C)CC2)O3)c(=O)[nH]1 [Compound 147]		6.8	92		83
COC1CN([C@H]2CC[C@@H]([C@H]3COc4c(Cl)cc(C(=O)NCc5c(C)cc(C)[nH]c5=O)c(C)c4O3)CC2)C1 [Compound 92]	22	2.5	33.1		
Cc1cc(C)c(CNC(=O)c2cc(Cl)c3c(c2C)OC(C2CCC(N(C)CCF)CC2)CO3)c(=O)[nH]1 (stereo not shown) [Compound 125]	402	33.9	307		
Cc1cc(C)c(CNC(=O)c2cc(Cl)c3c(c2C)OC(C2CCC(N4CC5COCC5C4)CC2)CO3)c(=O)[nH]1 (single isomer, unassigned) [Compound 60]		16.4	94.9	> 1000	
COC1CC2CN([C@H]3CC[C@H]([C@H]4COc5c(Cl)cc(C(=O)NCc6c(SC)cc(C)[nH]c6=O)c(C)c5O4)CC3)CC2C1 (stereo partly shown) [Compound 50]	23.8		11.8		
Cc1cc(C)c(CNC(=O)c2cc(Cl)c3c(c2C)OC(C2CCC(N(C)C4CC(F)C4)CC2)CO3)c(=O)[nH]1 (stereo not shown) [Compound 126]	818	20.3	218		
Cc1cc(C)c(CNC(=O)c2cc(Cl)c3c(c2C)OC(C2CCC(N4CC(F)(F)C4)CC2)CO3)c(=O)[nH]1 (single isomer, unassigned) [Compound 57]	> 1000	21.7	260		
COCCN(C)[C@H]1CC[C@H]([C@H]2COc3c(Cl)cc(C(=O)NCc4c(SC)cc(C)[nH]c4=O)c(C)c3O2)CC1 [Compound 27]	11.4	2.3	14.4		
CSc1cc(C)[nH]c(=O)c1CNC(=O)c1cc(Cl)c2c(c1C)O[C@@H]([C@H]1CC[C@H](N3CC4(CCOC4)C3)CC1)CO2 [Compound 48]	27.9		6		
Cc1cc(C)c(CNC(=O)c2cc(Cl)c3c(c2C)O[C@@H](C2CCN(C4COC4)CC2)CO3)c(=O)[nH]1 [Compound 88]	310	29.5			
Cc1cc(C)c(CNC(=O)c2cc(Cl)c3c(c2C)OC(C2CCC(N4CCOCC4)CC2)CO3)c(=O)[nH]1 (single isomer, unassigned) [Compound 81]	> 1000	31			
CSc1cc(C)[nH]c(=O)c1CNC(=O)c1cc(Cl)c2c(c1C)O[C@@H]([C@H]1CC[C@H](N3CC4COCC4C3)CC1)CO2 (stereo partly shown) [Compound 15]	101	2.1			
